Data reported in publication PMC2737062 (Bioorganic & medicinal chemistry, 2009).
“Also recorded” adds a separate entry of the source. Counter-ions that a name gives are not always drawn. Like-named read-outs stand apart in the source and are kept apart here. Each block holds one compound with its values, some of them ahead of it.

How the values were obtained:
[1] = target: T1, soybean lipoxygenase-1 (sLO-1) (Glycine max, UniProt P08170); format: biochemical; conditions: for effect of LO product on the AA:LA ratio: up to 5 μM product
T1 sequence (P08170 1-839): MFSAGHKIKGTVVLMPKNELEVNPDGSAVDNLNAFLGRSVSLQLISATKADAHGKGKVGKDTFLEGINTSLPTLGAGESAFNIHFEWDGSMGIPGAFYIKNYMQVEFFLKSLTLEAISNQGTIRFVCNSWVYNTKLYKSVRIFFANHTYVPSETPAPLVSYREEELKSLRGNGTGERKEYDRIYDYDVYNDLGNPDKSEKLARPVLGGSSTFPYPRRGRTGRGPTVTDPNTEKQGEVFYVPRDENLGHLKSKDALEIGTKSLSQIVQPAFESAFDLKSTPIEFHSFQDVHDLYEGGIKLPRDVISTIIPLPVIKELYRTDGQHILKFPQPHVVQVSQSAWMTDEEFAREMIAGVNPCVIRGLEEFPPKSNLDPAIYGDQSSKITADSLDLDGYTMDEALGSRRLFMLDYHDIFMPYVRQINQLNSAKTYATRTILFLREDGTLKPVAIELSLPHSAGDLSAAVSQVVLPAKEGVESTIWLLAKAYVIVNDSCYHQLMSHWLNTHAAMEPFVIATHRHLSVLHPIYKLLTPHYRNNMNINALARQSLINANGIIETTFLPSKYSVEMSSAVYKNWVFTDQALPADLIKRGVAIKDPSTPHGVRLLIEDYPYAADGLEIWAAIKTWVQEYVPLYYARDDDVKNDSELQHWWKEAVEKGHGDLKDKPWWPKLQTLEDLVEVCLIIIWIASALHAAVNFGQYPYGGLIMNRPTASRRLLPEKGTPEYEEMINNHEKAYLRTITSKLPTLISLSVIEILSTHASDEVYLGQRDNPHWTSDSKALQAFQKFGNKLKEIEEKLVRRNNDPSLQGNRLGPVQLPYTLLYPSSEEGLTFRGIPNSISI

[2] = target: T1, soybean lipoxygenase-1 (sLO-1); format: biochemical; conditions: for effect of LO product on the endogenous substrate mixture ratio ALA:LA: up to 5 μM product addition; for effect of inhibitor on the (kcat/KM)^ALA/(kcat/KM)^LA ratio: inhibitor in excess of its IC50 value
[3] = target: T1, soybean lipoxygenase-1 (sLO-1); assay: IC50 assay of sLO-1 with PS, OS and OA inhibitors, LA as substrate; format: biochemical
[4] = system: 15-hLO-1 (human reticulocyte 15-lipoxygenase); conditions: cited from earlier work

Compound: CCCCCCCC/C=C\CCCCCCCC(=O)O [OA, oleic acid]
- effect of inhibitor on the AA:LA substrate ratio ([1]; competitive inhibitor, at IC50 and 5-fold IC50): no effect
- IC50 [3]: 11 ± 3 µM
- effect of inhibitor on the (kcat/KM)^ALA/(kcat/KM)^LA ratio [2]: none of the inhibitors, OS, OA, or PS, affected

Compound: CCCCCCCC/C=C\CCCCCCCCOS(=O)(=O)O [OS, oleyl sulfate]
- AC50 [1]: 1.5 ± 0.3 µM
- IC50 [3]: 1 ± 0.1 µM
- effect of inhibitor on the (kcat/KM)^ALA/(kcat/KM)^LA ratio [2]: none of the inhibitors, OS, OA, or PS, affected

Compound: CCCCC/C=C\C/C=C\C/C=C\C/C=C\CCCC(=O)O [AA, arachidonic acid]
- (kcat/KM)^AA/(kcat/KM)^LA ratio (substrate specificity, no effector) ([1]; AA:LA 1:1, 1 μM total substrate, 100 mM Borate pH 9.2, 22 °C): 1.8 ± 0.2

Compound: CC/C=C\C/C=C\C/C=C\CCCCCCCC(=O)O [ALA, α-linolenic acid]
- (kcat/KM)^ALA/(kcat/KM)^LA ratio (substrate specificity, no effector) ([2]; ALA:LA 1:1, 1 μM total substrate, 100 mM Borate pH 9.2, 22 °C): 0.75 ± 0.5

Further lines, with some results ahead:

- effect of LO product on the AA:LA ratio [1]: no observable effect
- effect of LO product on the endogenous substrate mixture ratio ALA:LA [2]: no effect
Compound: CC/C=C\C[C@H](O)/C=C/C=C\CCCCCCCC(=O)O [13-HOTrE]

- effect of LO product on the endogenous substrate mixture ratio ALA:LA [2]: no effect
Compound: CCCCC[C@H](O)/C=C/C=C\CCCCCCCC(=O)O [13-HODE, 13-(S)-hydroxyoctadecadienoic acid]
- effect of LO product on the AA:LA ratio [1]: no observable effect; also recorded: did not display any observable effect
- (kcat/KM)^AA/(kcat/KM)^LA ratio of 15-hLO-1 ([4]; 5 μM 13-HODE, increase from 1.4): 2.9

- (kcat/KM)^AA/(kcat/KM)^LA ratio ([1]; addition of 12-HETE (5 μM), control 1.8 ± 0.2): 2.4 ± 0.2
- maximum (kcat/KM)^AA/(kcat/KM)^LA ratio at saturating conditions ([1]; calculated from saturation curve fit): 5.1 ± 0.3
- binding affinity to sLO-1 weaker than to 15-hLO-1 ([1]; ratio of half saturation points, sLO-1 vs 15-hLO-1): ~30 fold
- effect on sLO-1 catalysis ([1]; saturating amounts at the allosteric site, both AA and LA as substrate): inhibit sLO-1
- effect of LO product on the endogenous substrate mixture ratio ALA:LA [2]: no effect
Compound: CCCCC/C=C\C[C@H](O)/C=C/C=C\C/C=C\CCCC(=O)O [12-HETE, 12-(S)-hydroxyeicosatetraenoic acid]
- (kcat/KM)^AA/(kcat/KM)^LA ratio of 15-hLO-1 ([4]; with 12-HETE, increase from 1.8): 2.7
